# According to PubChem BioAssay AID2483 (Sanford-Burnham Center for Chemical Genomics, 2010):
# Calls of active or inactive are those of the source. How the calls were made is not given here.
# Tested on: TNFa-induced NF-kB reporter inhibition, human cells
# Assay: TNFa-triggered NF-kB activation inhibitors, SAR follow-up, cell-based, set 2 (AID 2483)
row,SMILES,IC50
1,C/C=C/Cn1c(SCc2ccccc2)nc2c1c(=O)[nH]c(=O)n2C,> 20 µM (inactive)
2,Cc1ccc(S(=O)(=O)n2c(N)nc3ccccc32)cc1,> 20 µM (inactive)
3,C/C(Cl)=C\Cn1c(NCCc2ccccc2)nc2c1c(=O)n(C)c(=O)n2C,5.21 µM
4,C/C=C/Cn1c(SCCCc2ccccc2)nc2c1c(=O)[nH]c(=O)n2C,8.49 µM
5,CCCCn1c(CN2CCN(c3cccc(Cl)c3)CC2)nc2c1c(=O)n(C)c(=O)n2C,5.69 µM
6,Cn1c(=O)[nH]c(=O)c2c1nc([N+](=O)[O-])n2Cc1ccccc1,1.32 µM
7,CCCCn1c(SCC(=O)c2ccccc2)nc2c1c(=O)[nH]c(=O)n2C,> 20 µM (inactive)
8,CC(C)Sc1nc2c(c(=O)[nH]c(=O)n2C)n1Cc1ccccc1,> 20 µM (inactive)
9,C/C=C/Cn1c(SCc2ccc(Cl)cc2)nc2c1c(=O)[nH]c(=O)n2C,> 20 µM (inactive)
10,CCCCn1c(SCC(=O)Nc2nnc(CC)s2)nc2c1c(=O)n(C)c(=O)n2C,13.1 µM
11,CCCn1c(SCCc2ccccc2)nc2c1c(=O)[nH]c(=O)n2C,> 20 µM (inactive)
12,C=CCn1c(SCCCc2ccccc2)nc2c1c(=O)[nH]c(=O)n2C,16.8 µM
13,CCCCCn1c(SCCc2ccccc2)nc2c1c(=O)[nH]c(=O)n2C,> 20 µM (inactive)
14,CC(C)n1c(SCCCc2ccccc2)nc2c1c(=O)[nH]c(=O)n2C,> 20 µM (inactive)
15,CCC(=O)Nc1nc2ccccc2n1Cc1ccccc1Cl,16.9 µM
16,CCCn1c(SCC(=O)Nc2nc3c(s2)CCCC3)nc2c1c(=O)n(C)c(=O)n2C,3.31 µM
17,COCCn1c(SCCCc2ccccc2)nc2c1c(=O)[nH]c(=O)n2C,> 20 µM (inactive)
18,O=C(Nc1nc2ccccc2n1Cc1ccc(Cl)cc1)c1ccco1,> 20 µM (inactive)
